Data taken from paper PMC8359378 (British Journal of Clinical Pharmacology, 2021).

How the values were obtained:
[1] = plasma pharmacokinetics in first‐in‐human study; type: in vivo; details: for Tmax: human, plasma
[2] = system: FXa, FIXa, FXIIa, FVIIa, thrombin, tPA, urokinase and plasmin; details: cited from earlier work

## Nc1ccc(-c2nc([C@H]3CCc4cc(-c5cc(Cl)ccc5-n5cnnn5)cc(=O)n43)c(F)[nH]2)c(F)n1 [ONO‐7684]
[1]; Part A, 80 mg fed cohort
  time of peak mean plasma concentration post‐dose: approximately 8 hours
[1]; Part A, 1–300 mg
  fold increase of AUCinf with a 300‐fold increase in dose: ~416 fold
  fold increase of Cmax with a 300‐fold increase in dose: about 308 fold
[1]; Part A, each cohort except 80 mg fed
  time of peak mean plasma concentration post‐dose: approximately 4 hours
[1]; Part B, 80 mg QD
  AUC24 accumulation GM ratio Day 14 versus Day 1: 2.33
  Cmax accumulation GM ratio Day 14 versus Day 1: 1.88
[1]; Part B, 150 mg QD
  AUC24 accumulation GM ratio Day 14 versus Day 1: 2.22
  Cmax accumulation GM ratio Day 14 versus Day 1: 1.90
[1]; Part B, 250 mg QD
  AUC24 accumulation GM ratio Day 14 versus Day 1: 2.41
  Cmax accumulation GM ratio Day 14 versus Day 1: 2.09
[1]; Part B, 80–250 mg QD, Day 14
  fold increase of AUC24 with a 3.1‐fold increase in dose: approximately 3.6 fold
  fold increase of Cmax with a 3.1‐fold increase in dose: approximately 3.6 fold
[1]; Part B, after final dose on Day 14
  time for plasma concentrations to decrease to baseline levels: ≤ 72 h
[1]; Part B, daily dosing
  time to reach steady state: ≤ 6 days
[1]; oral, median range across cohorts, Part A, fasted cohorts
  Tmax: 2.5 to 4 h
[1]; oral, median range across cohorts, Part B, Day 1
  Tmax: 2.5 to 4 h
[1]; oral, median range across cohorts, Part B, Day 14
  Tmax: 4 to 4.01 h
[1]; po, 1 mg, median (range), Part A, single dose 1 mg, fasted
  Tmax: 2.5 h
[1]; po, 5 mg, median (range), Part A, single dose 5 mg, fasted
  Tmax: 3.5 h
[1]; po, 80 mg, median (range), Part A, single dose 80 mg, fed
  Tmax: 7.05 h
[1]; po, 80 mg, median (range), Part B, 80 mg QD fed, Day 1
  Tmax: 2.5 h
[1]; po, 80 mg, median (range), Part B, 80 mg QD fed, Day 14
  Tmax: 4.01 h
[1]; po, 150 mg, median (range), Part B, 150 mg QD fed, Day 1
  Tmax: 4 h
[1]; po, 150 mg, median (range), Part B, 150 mg QD fed, Day 14
  Tmax: 4.01 h
[1]; po, 250 mg, median (range), Part B, 250 mg QD fed, Day 1
  Tmax: 4 h
[1]; po, 250 mg, median (range), Part B, 250 mg QD fed, Day 14
  Tmax: 4 h
[2]
  selectivity for FXIa relative to other coagulation/fibrinolysis factors: highly selective for FXIa
